Experimental data as given in patent publication US10328033B2, “Methods and biocompatible compositions to achieve sustained drug release in the eye” (Integral Biosystems LLC, priority 2014, dated 2019).

Assay: Photo-oxidation stress by high intensity UV light
Format: physicochemical
Settings: UV 254 nm, 24 hours, in buffer alone
Description: Nanomesh wafers (ML-ES-06-31) were tested for photo-oxidative degradation by high intensity UV light (254 nm, for 24 hours). […] In contrast, 50% of the travoprost in buffer alone was degraded under these conditions.

With `CC(C)OC(=O)CCC/C=C\C[C@@H]1[C@@H](/C=C/[C@@H](O)COc2cccc(C(F)(F)F)c2)[C@H](O)C[C@@H]1O` [travoprost] the travoprost degraded was 50%.
